tested on: Escherichia coli (ATCC25922) or Staphylococcus aureus (ATCC25923); assay: Antibacterial MIC, microdilution method in Mueller-Hinton medium; type: cell-based; conditions: Escherichia coli, 18 h, MIC in E. coli or S. aureus; two-fold serial dilutions 64 to 0.5 μg/ml in duplicate; 18 hours of incubation at 35° C.; read-out: Potency (MIC)
Outline: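 Read after 18 h incubation at 35° C, MIC is the lowest compound level that blocked growth. Compounds were tested in duplicate over 64–0.5 μg/ml two-fold dilutions using Mueller-Hinton microdilution per NCCLS standard.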

**Q.** For Cl.O=C(Oc1ccccc1)c1ccc(Nc2cc(N3CCCCC3)cc(N3CCCCC3)c2)cc1O [4-[4-((3S,5R)-3,5-Diamino-piperidin-1-yl)-6-((R)-3-hydroxy-piperidin-1-yl)-[1,3,5]triazin-2-ylamino]-2-hydroxy-benzoicacidphhenylester], which MIC is on record?
**A.** < 64 µg/mL

**Q.** N[C@@H]1C[C@H](N)CN(c2nc(Nc3ccc(S(=O)(=O)Nc4ccc5cn[nH]c5c4)cc3)nc(NC3CCCNC3)n2)C1 (stereo partly drawn) [4-[4-((3S,5R)-3,5-Diamino-piperidin-1-yl)-6-(piperidin-3-ylamino)-[1,3,5]triazin-2-ylamino]-N-(1H-indazol-6-yl)-benzenesulfonamide] was tested. Which MIC did it give?
**A.** > 64 µg/mL

**Q.** With O=S(=O)(Nc1ccc2cn[nH]c2c1)c1ccc(Nc2nc(N3CCCCC3)nc(N3CCNCC3)n2)cc1 [4-[4-((3S,5R)-3,5-Diamino-piperidin-1-yl)-6-piperazin-1-yl[1,3,5,-triazin-2-ylamino]-N-(1H-indazol-6-yl)-benzenesulfonamide] as the molecule, how does the MIC read?
**A.** > 64 µg/mL

**Q.** Which MIC does the source give for Cl.NCCN(CCN)c1nc(Nc2ccc(C(=O)Oc3ccccc3)c([N+](=O)[O-])c2)nc(N2CCCCC2)n1 [4-[4-[Bis-(2-amino-ethyl)-amino]-6-((3R,5S)-3,5-diamino-piperidin-1-yl)-[1,3,5]triazin-2-ylamino]-2-hydroxy-benzoic acidphenyl ester] here?
**A.** < 64 µg/mL

**Q.** How did the MIC turn out when Cl.N[C@@H]1C[C@H](N)CN(c2nc(N3C[C@H](N)C[C@H](N)C3)nc(N(c3ccccc3)c3ccc(O)cc3)n2)C1 [4-{[4,6-Bis-((3R,5S)-3,5-diamino-piperidin-1-yl)-[1,3,5]triazin-2-yl]-phenyl-amino}-phenyl] was run?
**A.** > 64 µg/mL

**Q.** How did the MIC turn out when Cl.O=C(CCCCC1SCC2NC(=O)NC21)Nc1ccc(Nc2nc(N3CCCCC3)nc(N3CCCCC3)n2)cc1O [5-((S)-2-Oxo-hexahydro-thieno[3,4-d]imidazol-2-yl)-penanoicacid {4-[4-((3S,5S)-3-amino-5-azido-piperidin-1-yl)-6-((3S,5R)-3,5-diamino-piperidin-1-yl)-[1,3,5]triazin-2-ylamino]-2-hydroxy-phenyl}-amide] was run?
**A.** > 64 µg/mL

**Q.** With Cl.Nc1nc(Nc2ccc(Cl)c(Cl)c2)nc(C2C[C@@H](N)C[C@@H](N)C2)n1 (stereo partly drawn) [6-((3S,5R)-3,5-Diamino-piperidin-1-yl)-N-(3,4-dichlorro-phenyl)-[1,3,5]triazine-2,4-diamine] as the molecule, how does the MIC read?
**A.** > 64 µg/mL

**Q.** Which MIC does the source give for Cc1cc(=O)oc2cc(Nc3nc(N4C[C@H](N)C[C@H](N)C4)nc(N4CC[C@H](O)[C@@H]4CN)n3)ccc12 [7-[4-((2S,3S)-2-Aminomethyl-3-hydroxy-pyrrolidin-1-yl)-6-((3R,5S)-3,5-diamino-piperidin-1-yl)-[1,3,5]triazin-2-ylamino]-4-methyl-chromen-2-one] here?
**A.** > 64 µg/mL

**Q.** For COc1nc(Nc2ccc3c(C)cc(=O)oc3c2)nc(N2CCCCC2)n1.Cl [7-[4-((3R,5S)-3,5-DSiamino-piperidin-1-yl)-6-methoxy-[1,3,5]triazin-2-ylamino]-4-methyl-chromen-2-one], which MIC is on record?
**A.** > 64 µg/mL

**Q.** For Cc1cc(=O)oc2cc(Nc3nc(N4C[C@H](N)C[C@H](N)C4)nc(N4CCC[C@@H](O)C4)n3)ccc12 [7-[4-((3R,5S)-3,5-Diamino-piperidin-1-yl)-6-((R)-3-hydroxy-piperidin-1-yl)-[1,3,5]triazin-2-ylamino]-4-methyl-chromen-2-one], which MIC is on record?
**A.** < 64 µg/mL

**Q.** With Cc1cc(=O)oc2cc(Nc3nc(N4CCCCC4)nc(N4CCCC4)n3)ccc12.Cl [7-[4-((3R,5S)-33,5-Diamino-piperidin-1-yl)-6-((3R,4S)-3,4-dihydroxy-pyrrolidin-1-yl)-[1,3,5]triazin-2-ylamino]-4-methyl-chromen-2-one] as the molecule, how does the MIC read?
**A.** > 64 µg/mL

**Q.** With Cc1cc(=O)oc2cc(Nc3nc(N4C[C@H](N)C[C@H](N)C4)nc(N4C[C@@H](N)C[C@@H](O)C4)n3)ccc12 [7-[4-((3S,5R)-3-Amino-5-hydroxy-piperidin-1-yl)-6-((3R,5S)-3,5-diamino-piperidin-1-yl)-[1,3,5]triazin-2-ylamino]-4-methyl-chromen-2-one] as the molecule, how does the MIC read?
**A.** > 64 µg/mL

**Q.** How did the MIC turn out when N[C@@H]1C[C@H](N)CN(c2nc(N3CCC(n4c(=O)[nH]c5ccccc54)CC3)nc(N3C[C@H](N)C[C@H](N)C3)n2)C1 [8-(4,6-Bis-((3R,5S)-3,5-0diamino-piperidin-1-yl)-[1,3,5]triazin-2-yl)-1-phenyl-1,3,8-triaza-spiro[4.5]decan-4-one] was run?
**A.** > 64 µg/mL

**Q.** With COC(=O)c1ccc(Nc2nc(N3CCCCC3)nc(N3CCCCC3)n2)c(O)c1 [44-[4,6-Bis-((3R,5S)-3,5-diamino-piperidin-1-yl)-[1,3,5]triazin-2-ylamino]-3-hydroxy-benzoic acidmethyl ester] as the molecule, how does the MIC read?
**A.** > 64 µg/mL

**Q.** Which MIC does the source give for N[C@@H]1C[C@H](N)CN(c2cc(N3C[C@H](N)C[C@H](N)C3)cc(N(c3ccc([N+](=O)[O-])cc3)c3ccc([N+](=O)[O-])cc3)c2)C1 [(3,5-Bis-((3R,5S)-3,5-diamino-piperidin-1-yl)-phenyl)-bis-(4-nitro-phenyl)-amine] here?
**A.** < 64 µg/mL

**Q.** How did the MIC turn out when Cl.NC1CCCN(c2nc(Nc3ccc(Cl)c(Cl)c3)nc(N3CCCCC3)n2)C1 [(3R,5S)-1-[4-(3-Amino-piperidin-1-yl)-6-(3,4-dichloro-phenylammino)-[1,3,5]triazin-22-yl]-piperidine-3,5-diamine] was run?
**A.** < 64 µg/mL

**Q.** For Cl.NC1CCN(c2nc(Nc3ccc(Cl)c(Cl)c3)nc(N3C[C@H](N)C[C@H](N)C3)n2)CC1 [(3R,5S)-1-[4-(4-Amino-piperidin-1-yl)-6-(3,4-dichloro-phenylamino)-[1,3,5]triazin-2-yl]-piperidine-3,5-diamine], which MIC is on record?
**A.** < 64 µg/mL

same assay, conditions: Escherichia coli, 18 h, read-out: Potency (MIC)

**Q.** Which MIC does the source give for N[C@@H]1C[C@H](N)CN(c2nc(Nc3ccc(S(=O)(=O)Nc4ccc5cn[nH]c5c4)cc3)nc(N3C[C@@H](O)[C@@H](O)C3)n2)C1 [4-[4-((3S,5R)-3,5-Diamino-piperidin-1-yl)-6-((3R,4S)-3,4-dihydroxy-pyrrolidin-1-yl)-[1,3,5]triazin-2-ylamino]-N-(1H-indazol-6-yl)-benzenesulfonamide] here?
**A.** > 64 µg/mL

**Q.** Which MIC does the source give for N[C@@H]1C[C@H](N)CN(c2nc(Nc3ccc(S(=O)(=O)Nc4ccc5cn[nH]c5c4)cc3)nc(N3C[C@H](O)C[C@@H](O)C3)n2)C1 [4-[4-((3S,5R)-3,5-Diamino-piperidin-1-yl)-6-((3R,5R)-3,5-dihydroxy-piperidin-1-yl)-[1,3,5]triazin-2-ylamino]-N-(1H-indazol-6-yl)-benzenesulfonamide] here?
**A.** > 64 µg/mL

**Q.** With N[C@@H]1C[C@H](N)CN(c2nc(Nc3ccc(S(=O)(=O)Nc4ccc5cn[nH]c5c4)cc3)nc(N3CCC[C@@H](O)C3)n2)C1 [4-[4-((3S,5R)-3,5-Diamino-piperidin-1-yl)-6-((R)-3-hydroxy-piperidin-1-yl)-[1,3,5]triazin-2-ylamino]-N-(1H-indazol-6-yl)-benzenesulfonamide] as the molecule, how does the MIC read?
**A.** > 64 µg/mL

**Q.** N[C@@H]1C[C@H](N)CN(c2nc(Nc3ccc(NC(=O)CCCC[C@@H]4SC[C@H]5NC(=O)N[C@@H]45)c(O)c3)nc(N3C[C@H](N)C[C@H](N)C3)n2)C1 [5-((3aR,4S,6aS)-2-Oxo-hexahydro-thieno[3,4-d]imidazol-4-yl)-pentanoicacid {4-[4-((3R,5S)-3,5-diamino-piperidin-1-yl)-6-((3S,5R)-3,5-diamino-piperidin-1-yl)-[1,3,5]triazin-2-ylamino]-2-hydroxy-phenyl}-amide] was tested. Which MIC did it give?
**A.** > 64 µg/mL

**Q.** Which MIC does the source give for N[C@@H]1C[C@H](N)CN(c2nc(N3C[C@H](N)C[C@H](N)C3)nc(-n3ccc4cc(Br)ccc43)n2)C1 [5-Bromo-1-(4,6-Bis-((3R,5S)-3,5-diamino-piperidin-1-yl)-[1,3,5]triazain-2-yl)-1H-indole] here?
**A.** < 64 µg/mL

**Q.** Which MIC does the source give for Cc1cc(=O)oc2cc(Nc3nc(NCCN)nc(N4C[C@H](N)C[C@H](N)C4)n3)ccc12 [7-[4-(2-Amino-ethylamino)-6-((3R,5S)-3,5-diamino-piperidin-1-yl)-[1,3,5]triazin-2-ylamino]-4-methyl-chromen-2-one] here?
**A.** > 64 µg/mL

**Q.** Which MIC does the source give for Cc1cc(=O)oc2cc(Nc3nc(N4C[C@H](N)C[C@H](N)C4)nc(N4C[C@H](O)C[C@H]4CN)n3)ccc12 [7-[4-((2S,4R)-2-Aminomethyl-4-hydroxy-pyrrolidin-1-yl)-6-((3R,5S)-3,5-diamino-piperidin-1-yl)-[1,3,5]triazin-2-ylamino]-4-methyl-chromen-2-one] here?
**A.** > 64 µg/mL

**Q.** For Cc1cc(=O)oc2cc(Nc3nc(N4C[C@H](N)C[C@H](N)C4)nc(N4CC[C@H](O)[C@H](CN)C4)n3)ccc12 [7-[4-((3R,4S)-3-Aminomethyl-4-hydroxy-piperidin-1-yl)-6-((3R,5S)-3,5-diamino-piperidin-1-yl)-[1,3,5]triazin-2-ylamino]-4-methyl-chromen-2-one], which MIC is on record?
**A.** > 64 µg/mL

**Q.** For Cc1cc(=O)oc2cc(Nc3nc(N4C[C@H](N)C[C@H](N)C4)nc(N4C[C@H](O)C[C@@H](O)C4)n3)ccc12 [7-[4-((3R,5S)-3,5-Diamino-piperidin-1-yl)-6-((3R,5R)-3,5-dihydroxy-piperidin-1-yl)-[1,3,5]triazin-2-ylamino]-4-methyl-chromen-2-one], which MIC is on record?
**A.** > 64 µg/mL

**Q.** Cc1cc(=O)oc2cc(Nc3nc(N4C[C@H](N)C[C@H](N)C4)nc(N4C[C@@H](N)[C@@H](N)C4)n3)ccc12 [7-[4-((3R,5S)-3,5-diamino-piperidin-1-yl)-6-((3R,4S)-3,4-diamino-pyrrolidin-1-yl)-[1,3,5]triazin-2-ylamino]-4-methyl-chromen-2-one] was tested. Which MIC did it give?
**A.** > 64 µg/mL

**Q.** For Cc1cc(=O)oc2cc(Nc3nc(N4C[C@H](N)C[C@H](N)C4)nc(N4C[C@H](CN)C[C@H](CN)C4)n3)ccc12 [7-[4-((3S,5R)-3,5-Bis-(aminomethyl)-piperidin-1-yl)-6-((3R,5S)-3,5-diamino-piperidin-1-yl)-[1,3,5]triazin-2-ylamino]-4-methyl-chromen-2-one], which MIC is on record?
**A.** > 64 µg/mL

**Q.** Which MIC does the source give for Cc1cc(=O)oc2cc(Nc3nc(N(CCN)CCN)nc(N4C[C@H](N)C[C@H](N)C4)n3)ccc12 [7-[4-[Bis-(2-amino-ethyl)-amino]-6-((3R,5S)-3,5-diamino-piperidin-1-yl)-[1,3,5]triazin-2-ylamino]-4-methyl-chromen-2-one] here?
**A.** > 64 µg/mL

**Q.** Which MIC does the source give for N[C@@H]1C[C@H](N)CN(c2cc(Nc3ccc([N+](=O)[O-])cc3)cc(N3C[C@H](N)C[C@H](N)C3)c2)C1 [(3,5-Bis-((3R,5S)-3,5-diamino-piperidin-1-yl)-phenyl)-(4-nitro-phenyl)-amine] here?
**A.** > 64 µg/mL
